In series [1] the test system is fear-conditioned mice. The series is described as follows: fear condition-induced akinesia time (conditioned-fear measurement system). Format: in vivo, mouse. The note with it: for akinesia time (for every 60 seconds) compared to the control group, two-way analysis of variance: 30 mg/kg oral for 7 days, P<0.01 (menaquinone-4), P<0.05 (menaquinone-7); for akinesia time (% of freezing), period from 0 to 60 seconds / akinesia time (% of freezing), period from 180 to 240 seconds: male C57BL/6 mice, 30 mg/kg oral forced feeding for 7 days, measured 2 h after final administration, mean of 10 mice. From the text: A stimulus from the outside enters the brain through the sense organs, and is sent to the amygdaloid body and the hippocampus-lateral septum system, where it is judged if the stimulus is beneficial or harmful. (The judgment is referred to as “biological value evaluation”). The information that has been evaluated is stored in the amygdaloid body and the hippocampus. At the same time, biological response occurs, and biological response is visually recognized by an observer as emotional expression. A human and an animal learn (acquire) information on the biological value evaluation they gained through their experiences. When they receive the same stimulus, the stimulus is compared in the amygdaloid body and the hippocampus-lateral septum system. The response that occurs at the time is referred to as “conditioned emotional response”. Assume that a rat or mouse is put into a specified box and an electric stimulus it hates is applied to the rat or mouse. […] The akinesia is referred to as “condition-induced akinesia”. Currently, an animal model for evaluating anti-anxiety and anti-depression effects is widely used while using decrease of akinesia time as an index.
Whether the tranquilizer of the invention has a similar effect as a commercially-available anti-depressant was examined using said anxiety evaluation system. Specifically, fear-conditioned mice were fed through forced feeding a sample consisting of vitamin K and medium, or a control sample consisting of medium only, respectively, for 7 days. The effect of each sample was examined on the akinesia time of mice.
Menaquinone-4 and menaquinone-7 as vitamin K to be used as an active ingredient of an anti-anxiety agent of the invention were purchased from Wako Pure Chemical Industries, Ltd. After the given amounts of menaquinone-4 or menaquinone-7 were weighed, they were suspended in 0.5% MC so that a certain concentration is acquired. The control group was fed with only the medium (0.5% MC).
(§1) 10-week old male mice (C57BL/6NCrlCrlj, SPF grade) were purchased from Charles River Laboratories Japan. After 5-day quarantine period and subsequent 5-day acclimatization, weight measurement and observation of the general condition were conducted once a day.
A solid feed (ANG93G, Oriental Yeast Co., Ltd.) was placed in the feeder, and the mice were allowed to freely take the feed. The mice were allowed to freely drink water using a water bottle. The samples were orally administered through forced feeding in accordance specified method, using a disposable syringe made of polypropylene (manufactured by Terumo Corporation, Japan) attached with a disposable feeding needle for mouse (manufactured by Fuchigami kikai Ltd.). The sample was administered while it was stirred with a stirrer. The sample was administered so that the administration quantity of Vitamin K was 30 mg per kg in weight. The administration amount of liquid was calculated based on 10 ml/kg based using the weight on the date of administration.
(§2) The general conditions and death of a mouse were observed once a day before the administration. The weights were measured once a day before administration. A conditioned-fear measurement system (manufactured by ActiMetrics) was used for measuring electric stimulus and akinesia time. After the mice allocated to the individual groups were placed in the conditioned-fear measurement system, electric stimulus was applied for fear conditioning and the akinesia time was measured simultaneously. Electric stimulus of 0.3 mA for one second in every 15 seconds was applied for 240 seconds. Upon completion of the electric stimulus, the sample was administered to the mice. After 7-day administration, the mice in the control group (0.5% MC) and in the vitamin K-administered groups were placed again in the conditioned-fear measurement system at 2 hours or 2 hours and 1 minute after the final administration, and the akinesia time in 4 minutes was measured under the condition without electric stimulus being applied. […]

Series [2] can be described thus: general conditions, death and weights during 7-day administration. Format: in vivo, mouse. The conditions noted are these: mice, 30 mg/kg oral for 7 days, compared with control group (0.5% MC). The procedure:
as §1
A solid feed (ANG93G, Oriental Yeast Co., Ltd.) was placed in the feeder, and the mice were allowed to freely take the feed. The mice were allowed to freely drink water using a water bottle. […] The sample was administered so that the administration quantity of Vitamin K was 30 mg per kg in weight. The administration amount of liquid was calculated based on 10 ml/kg based using the weight on the date of administration.
as §2, with “A conditioned-fear measurement system (manufactured by ActiMetrics) was used for measuring electric stimulus and akinesia time.” left out, “Electric stimulus of 0.3 mA for one second in every 15 seconds was applied for 240 seconds. Upon completion of the electric stimulus, the sample was administered to the mice.” left out

The conditions of series [3]: MK-7 originating from fermented soybeans taken, compared with MK-4 taken directly (Ozaki et al. 2006); cited from earlier work.
In series [4] the test system is fear-conditioned mice. The conditions noted are these: 7-day oral administration of 30 mg/kg; cited from earlier work.

Structures can show the parent of a compound that is named as a salt.

As to `CC(C)=CCC/C(C)=C/CC/C(C)=C/CC/C(C)=C/CC/C(C)=C/CC/C(C)=C/CC/C(C)=C/CC1=C(C)C(=O)c2ccccc2C1=O` [menaquinone-7], in series [1], the “akinesia time (for every 60 seconds) compared to the control group, two-way analysis of variance” value was “significant decreases in the akinesia time were observed”; the “akinesia time (% of freezing), period from 0 to 60 seconds” value amounted to 38.84%; the “akinesia time (% of freezing), period from 180 to 240 seconds” value stood at 20.83%. Further, the “weights through the administration period” value in series [2] is reported as “remained substantially constant”. Further, in series [3], the “MK-4 in the brain” value was “increases in the brain more remarkably”.

As for `CC(C)=CCC/C(C)=C/CC/C(C)=C/CC/C(C)=C/CC1=C(C)C(=O)c2ccccc2C1=O` [menaquinone-4], in series [1], the “akinesia time (for every 60 seconds) compared to the control group, two-way analysis of variance” value was “significant decreases in the akinesia time were observed”; the “akinesia time (% of freezing), period from 0 to 60 seconds” value stood at 31.99%; the “akinesia time (% of freezing), period from 180 to 240 seconds” value was determined as 22.29%. Moreover, the “weights through the administration period” value in series [2] is “remained substantially constant”.

With `CCN(CC)C(=O)C1(c2ccccc2)CC1CN` (stereo not shown) [milnacipran hydrochloride], in series [4], the condition-induced akinesia entry is “akinesia is alleviated”.
